The values below come from ChEMBL document CHEMBL5528048, “Discovery of Novel Potent and Fast BTK PROTACs for the Treatment of Osteoclasts-Related Inflammatory Diseases” (J Med Chem, 2024).

Data set [1] concerns the target T1, Protein cereblon/Tyrosine-protein kinase BTK (Homo sapiens, UniProt Q06187+Q96SW2). In words: PROTAC activity at BTK/CRBN in human MINO cells assessed as BTK protein degradation at 100 nM measured after 24 hrs by Western blotting analysis relative to control. The format is cell-based.
Target sequence in this assay (Q06187 2-659 limits assumed): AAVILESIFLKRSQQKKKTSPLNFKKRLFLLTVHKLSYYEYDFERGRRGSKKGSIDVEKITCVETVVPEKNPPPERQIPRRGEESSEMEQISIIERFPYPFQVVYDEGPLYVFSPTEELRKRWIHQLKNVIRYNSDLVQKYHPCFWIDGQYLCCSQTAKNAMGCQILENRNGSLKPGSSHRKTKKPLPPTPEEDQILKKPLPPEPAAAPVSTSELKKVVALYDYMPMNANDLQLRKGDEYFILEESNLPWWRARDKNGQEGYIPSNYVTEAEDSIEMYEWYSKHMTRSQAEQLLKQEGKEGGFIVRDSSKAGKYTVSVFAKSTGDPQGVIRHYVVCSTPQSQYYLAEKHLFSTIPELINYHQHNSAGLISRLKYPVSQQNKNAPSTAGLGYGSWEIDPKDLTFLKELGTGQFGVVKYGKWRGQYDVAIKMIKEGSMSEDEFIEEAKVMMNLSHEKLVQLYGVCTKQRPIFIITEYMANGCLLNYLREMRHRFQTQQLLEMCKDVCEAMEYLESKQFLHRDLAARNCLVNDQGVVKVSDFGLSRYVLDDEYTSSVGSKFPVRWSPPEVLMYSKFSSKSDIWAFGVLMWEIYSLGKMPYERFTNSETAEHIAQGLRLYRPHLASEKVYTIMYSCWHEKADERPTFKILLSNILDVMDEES
Target sequence in this assay (Q96SW2 whole entry partner): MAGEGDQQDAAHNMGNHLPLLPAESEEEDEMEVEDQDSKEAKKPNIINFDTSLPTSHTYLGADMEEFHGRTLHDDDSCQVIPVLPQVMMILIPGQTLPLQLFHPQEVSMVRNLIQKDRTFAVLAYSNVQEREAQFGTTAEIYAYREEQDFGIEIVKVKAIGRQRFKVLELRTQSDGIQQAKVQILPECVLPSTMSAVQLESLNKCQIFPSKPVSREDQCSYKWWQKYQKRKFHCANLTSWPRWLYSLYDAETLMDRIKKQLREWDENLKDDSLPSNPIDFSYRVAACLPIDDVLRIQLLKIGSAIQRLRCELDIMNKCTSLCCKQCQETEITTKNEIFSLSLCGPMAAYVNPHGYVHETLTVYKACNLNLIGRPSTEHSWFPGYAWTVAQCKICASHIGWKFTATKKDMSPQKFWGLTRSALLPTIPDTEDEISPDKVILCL
Data set [2] concerns the target T1, Protein cereblon/Tyrosine-protein kinase BTK. In words: PROTAC activity at BTK/CRBN in human MINO cells assessed as BTK protein degradation at 20 nM measured after 24 hrs by Western blotting analysis relative to control. The format is cell-based. In general terms: A western blot detects proteins with antibodies after separation by electrophoresis.
Target sequence in this assay (Q06187 2-659 limits assumed): as the sequence (Q06187 2-659 limits assumed) above
Target sequence in this assay (Q96SW2 whole entry partner): as the sequence (Q96SW2 whole entry partner) above
Data set [3] shares this target. Nature of the data set: PROTAC activity at BTK/CRBN in human MINO cells assessed as BTK protein degradation half life at 20 nM by Western blotting analysis. It is filed as cell-based.
Target sequence in this assay (Q06187 2-659 limits assumed): as the sequence (Q06187 2-659 limits assumed) above
Target sequence in this assay (Q96SW2 whole entry partner): as the sequence (Q96SW2 whole entry partner) above
For data set [4] the target is unchanged. Nature of the data set: PROTAC activity at BTK/CRBN in human MINO cells assessed as BTK protein degradation measured for 4 hrs by Western blotting analysis. It is filed as cell-based.
Target sequence in this assay (Q06187 whole entry): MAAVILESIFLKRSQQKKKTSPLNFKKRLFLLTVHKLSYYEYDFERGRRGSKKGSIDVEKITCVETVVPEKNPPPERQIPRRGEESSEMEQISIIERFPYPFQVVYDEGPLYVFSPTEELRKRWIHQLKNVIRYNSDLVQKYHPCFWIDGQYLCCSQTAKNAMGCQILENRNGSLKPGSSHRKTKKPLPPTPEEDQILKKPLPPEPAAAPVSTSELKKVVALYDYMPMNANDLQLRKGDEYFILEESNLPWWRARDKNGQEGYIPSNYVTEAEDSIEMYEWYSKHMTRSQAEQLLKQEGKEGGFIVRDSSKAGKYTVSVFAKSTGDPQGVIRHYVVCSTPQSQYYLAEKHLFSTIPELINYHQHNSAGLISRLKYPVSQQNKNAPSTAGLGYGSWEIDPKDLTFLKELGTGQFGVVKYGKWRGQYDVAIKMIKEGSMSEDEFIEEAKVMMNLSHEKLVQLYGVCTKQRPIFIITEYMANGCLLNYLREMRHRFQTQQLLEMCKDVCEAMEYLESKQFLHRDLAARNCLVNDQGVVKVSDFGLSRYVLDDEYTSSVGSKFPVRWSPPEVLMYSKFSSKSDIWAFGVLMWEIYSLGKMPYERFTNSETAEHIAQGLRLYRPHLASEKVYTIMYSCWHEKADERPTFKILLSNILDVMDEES
Target sequence in this assay (Q96SW2 whole entry): as the sequence (Q96SW2 whole entry partner) above
The target is the same in data set [5]. Nature of the data set: PROTAC activity at BTK/CRBN in human MINO cells assessed as BTK protein degradation by measuring onset time activity at 20 nM by Western blotting analysis. The format is cell-based.
Target sequence in this assay (Q06187 2-659 limits assumed): as the sequence (Q06187 2-659 limits assumed) above
Target sequence in this assay (Q96SW2 whole entry partner): as the sequence (Q96SW2 whole entry partner) above
Data set [6] has the same target. In words: PROTAC activity at BTK/CRBN in human MINO cells assessed as BTK protein degradation at 20 nM by Western blotting analysis. It is filed as cell-based. As to conditions: time lower 2.0 hrs, time upper […], TDE = time-dependent effect.
Target sequence in this assay (Q06187 2-659 limits assumed): as the sequence (Q06187 2-659 limits assumed) above
Target sequence in this assay (Q96SW2 whole entry partner): as the sequence (Q96SW2 whole entry partner) above
The target is the same in data set [7]. Nature of the data set: PROTAC activity at BTK/CRBN in human MINO cells assessed as BTK protein degradation at 20 nM measured after 4 to 8 hrs by Western blotting analysis. It is filed as cell-based. Conditions: time 4-8 hrs.
Target sequence in this assay (Q06187 2-659 limits assumed): as the sequence (Q06187 2-659 limits assumed) above
Target sequence in this assay (Q96SW2 whole entry partner): as the sequence (Q96SW2 whole entry partner) above
A short description of data set [8]: AUC (0 to t) in Sprague-Dawley rat at 4 mg/kg, ip measured upto 48 hrs. Conditions: in vivo. It is filed as ADME, organism-based.
Data set [9] in a line: Cmax in Sprague-Dawley rat at 4 mg/kg, ip measured upto 48 hrs. It is filed as ADME, organism-based. Conditions: in vivo.
A short description of data set [10]: AUC (0 to infinity) in Sprague-Dawley rat at 4 mg/kg, ip measured upto 48 hrs. The format is ADME, organism-based. As to conditions: in vivo.

The structures appear in SMILES notation. Active and inactive are the calls of the source. The calls are words filed in the database; no cut-off is given here.

On to `Cc1cc(-c2nc(Nc3cnn(C4CCN(CC5CCN(c6ccc7c(c6)C(=O)N(C6CCC(=O)NC6=O)C7=O)CC5)CC4)c3)ncc2F)ccc1CNC(=O)N1CC(OC(C)C)C1` (stereo not given), for which the Activity in [1] turned out to be 95%; in data set [2], 80%. With `O=C(/C=C/C(F)(F)F)Nc1cccc(Nc2nc(Nc3ccc(N4CCN(C5CN(c6ccc7c(c6)C(=O)N(C6CCC(=O)NC6=O)C7=O)C5)CC4)cc3)ncc2F)c1` (stereo not given), the Activity in data set [1] stood at 26%.

As to `O=C1CCC(N2C(=O)c3ccc(N4CC(CN5CCC(C#Cc6ccc(Nc7ncc(F)c(N8CCC(CO)CC8)n7)cn6)CC5)C4)cc3C2=O)C(=O)N1` (stereo not given), the Activity in data set [1] came out at 20%. As to `Cc1cc(-c2nc(Nc3cnn(C4CCN(CC5CCN(c6ccc7c(c6)C(=O)N(C6CCC(=O)NC6=O)C7=O)CC5)CC4)c3)ncc2F)ccc1CNC(=O)c1ccc(C(C)(C)C)cc1` (stereo not given), the Activity in data set [1] was 49%; in data set [2], 0%.

In the case of `CN1CCN([C@@H]2CCCN(c3nc(Nc4ccc(N5CCN(CC6CN(c7ccc8c(c7)C(=O)N(C7CCC(=O)NC7=O)C8=O)C6)CC5)cc4)ncc3F)C2)C1=O` (stereo not given in full), the Activity in [1] was under 10%. Same read-out and setting: to `CN1CCN([C@@H]2CCCN(c3nc(Nc4ccc(N5CCN(CC6CCN(c7ccc8c(c7)C(=O)N(C7CCC(=O)NC7=O)C8=O)CC6)CC5)cc4)ncc3F)C2)C1=O` (stereo not given in full) belongs 30%; to `O=C1CCC(N2C(=O)c3ccc(N4CC(CN5CCN(c6ccc(Nc7ncc(F)c(N8CCC(CO)CC8)n7)cn6)CC5)C4)cc3C2=O)C(=O)N1` (stereo not given), under 10%; to `Cc1cc(-c2nc(Nc3cnn(C4CCN(C(=O)CCC(=O)N[C@@H](C)C(=O)N[C@H]5CCC(=O)NC5=O)CC4)c3)ncc2F)ccc1CNC(=O)c1cn(C(C)(C)C)nn1`, 32%. For the compound `Cc1cc(-c2nc(Nc3ccn(C4CCN(CC5CCN(c6ccc7c(c6)C(=O)N(C6CCC(=O)NC6=O)C7=O)CC5)CC4)n3)ncc2F)ccc1CNC(=O)c1noc(C2CC2)n1` (stereo not given), the Activity in [1] was 63%; in data set [2], 0%. For `Cc1cc(-c2nc(Nc3ccn(C4CN(CC5CCN(c6ccc7c(c6)C(=O)N(C6CCC(=O)NC6=O)C7=O)CC5)C4)n3)ncc2F)ccc1CNC(=O)c1noc(C(C)(C)C)n1` (stereo not given) the same measures were 99% and 78%. Regarding `Cc1cc(-c2nc(Nc3ccn(C4CN(CC5CCN(c6ccc7c(c6)C(=O)N(C6CCC(=O)NC6=O)C7=O)CC5)C4)n3)ncc2F)ccc1CNC(=O)c1cn(C2CC2)nn1` (stereo not given), the Activity in [1] turned out to be 97%; in [2], 92%. For `Cn1cc(Nc2nc(Nc3ccc(N4CCN(CC5CN(c6ccc7c(c6)C(=O)N(C6CCC(=O)NC6=O)C7=O)C5)CC4)cc3)ncc2F)cn1` (stereo not given), in data set [1], the Activity was found to be 11%. For orientation: DC50 means the midpoint of the concentration-degradation curve. Turning to `NC(=O)c1ncc(N2CCCCC2)nc1Nc1ccc(C2CCN(C[C@@H]3CCN(c4ccc5c(c4)C(=O)N(C4CCC(=O)NC4=O)C5=O)C3)CC2)cc1` (stereo not given in full), the T1/2 in data set [3] worked out at 1.25 h. For the same compound, the DC50 in data set [4] turned out to be 4.86 nM. The TIME in data set [5] was under 1 h. Further, the values for the Activity in [1] and in data set [2] were 99% and 96%, respectively. As for `O=C1CCC(N2C(=O)c3ccc(N4CC(CN5CCN(c6ccc(Nc7ncc(F)c(-n8cccn8)n7)cc6)CC5)C4)cc3C2=O)C(=O)N1` (stereo not given), in data set [1], the Activity is under 10%. `Cc1cc(-c2nc(Nc3ccn(C4CCN(CC5CCN(c6ccc7c(c6)C(=O)N(C6CCC(=O)NC6=O)C7=O)CC5)CC4)n3)ncc2F)ccc1CNC(=O)c1cnc(C(C)(C)C)s1` (stereo not given): the Activity was 16% in [1] and 0% in [2].

On to `O=C1CCC(N2C(=O)c3ccc(N4CCC(CN5CCC(C#Cc6ccc(Nc7ncc(F)c(N8CCC(CO)CC8)n7)cn6)CC5)CC4)cc3C2=O)C(=O)N1` (stereo not given), for which, in data set [1], the Activity worked out at 35%.

In the case of `O=C1CCC(N2C(=O)c3ccc(N4CCC(CN5CCN(c6ccc(Nc7ncc(F)c(N8CCC(CO)CC8)n7)cn6)CC5)CC4)cc3C2=O)C(=O)N1` (stereo not given), the Activity in data set [1] was 20%. Consider `Cc1cc(-c2nc(Nc3ccn(C4CCN(CC5CCN(c6ccc7c(c6)C(=O)N(C6CCC(=O)NC6=O)C7=O)CC5)CC4)n3)ncc2F)ccc1CNC(=O)c1cn(C2CC2)nn1` (stereo not given), for which the Activity entry is “Tde” in data set [6], 21% in [1] and 99% in data set [2].

`Cc1cc(-c2nc(Nc3ccn(C4CCN(CC5CCN(c6ccc7c(c6)C(=O)N(C6CCC(=O)NC6=O)C7=O)CC5)CC4)n3)ncc2F)ccc1CNC(=O)c1noc(C(C)(C)C)n1` (stereo not given): in [3], the T1/2 amounted to 1.1 h. For the same compound, the DC50 in data set [4] was 10.3 nM. Besides, in [7], the outcome was Active. The results for the Activity entry in [6], in data set [1] and in data set [2] were “Tde”, 99% and 98%, respectively. What is called AUC(0-t) is exposure summed from dosing to a finite time, without extrapolation to infinity. The term Cmax denotes the peak of the concentration-time curve. The term AUC(0-inf) denotes total exposure, with the tail of the curve extrapolated. The compound `C=CC(=O)N1CCC[C@@H](n2nc(-c3ccc(Oc4ccccc4)cc3)c3c(N)ncnc32)C1` [IBRUTINIB] returned an exposure AUC(0-t) at 48 h in [8] of 11200 ng·h/mL. In data set [9], this compound came in with a Cmax of 3460 ng/mL. In data set [10], the AUC(0-inf) was 11700 ng·h/mL. In the case of `Cc1cc(-c2nc(Nc3ccn(C4CN(CC5CCN(c6ccc7c(c6)C(=O)N(C6CCC(=O)NC6=O)C7=O)CC5)C4)n3)ncc2F)ccc1CNC(=O)c1nc(C(C)(C)C)no1` (stereo not given), the Activity in data set [1] was determined as 99%; in data set [2] it was 96%. On to `O=C1CCC(N2C(=O)c3ccc(N4CCC(CN5CCN(c6ccc(Nc7ncc(F)c(N8CCC(CO)CC8)n7)cc6)CC5)CC4)cc3C2=O)C(=O)N1` (stereo not given), for which the Activity in [1] stood at 25%. For the compound `O=C1CCC(N2C(=O)c3ccc(N4CCC(CN5CCN(c6ccc(Nc7ncc(F)c(N8CCC[C@@H](N9CCOC9=O)C8)n7)cc6)CC5)CC4)cc3C2=O)C(=O)N1` (stereo not given in full), in data set [1], the Activity was 39%. For the compound `Cc1cc(-c2nc(Nc3ccn(C4CCN(CC5CCN(c6ccc7c(c6)C(=O)N(C6CCC(=O)NC6=O)C7=O)CC5)CC4)n3)ncc2F)ccc1CNC(=O)c1nc(C(C)(C)C)no1` (stereo not given), the Activity in data set [1] and in data set [2] was 99% each time.

For `C=CC(=O)Nc1cccc(Nc2nc(Nc3ccc(N4CCN(CC5CCN(c6ccc7c(c6)C(=O)N(C6CCC(=O)NC6=O)C7=O)CC5)CC4)cc3)ncc2F)c1` (stereo not given), in [1], the Activity was determined as 28%. As to `Cc1cc(-c2nc(Nc3cnn(C4CCN(CC5CCN(c6ccc(C7CCC(=O)NC7=O)cc6F)CC5)CC4)c3)ncc2F)ccc1CNC(=O)c1cn(C(C)(C)C)nn1` (stereo not given), in [1], the Activity was determined as 57%. As to `O=C1CCC(N2C(=O)c3ccc(N4CC(CN5CCN(c6ccc(Nc7ncc(F)c(N8CCC(CO)CC8)n7)cc6)CC5)C4)cc3C2=O)C(=O)N1` (stereo not given), the Activity in [1] was under 10%. On the same count and under the same terms, as for `Cc1cc(-c2nc(Nc3cnn(C4CCN(CC5CCN(c6ncc(-c7ccc(=O)[nH]n7)cc6F)CC5)CC4)c3)ncc2F)ccc1CNC(=O)c1cn(C(C)(C)C)nn1`, the figure is 48%.

On to `Cc1cc(-c2nc(Nc3cnn(C4CN(CC5CCN(c6ccc7c(c6)C(=O)N(C6CCC(=O)NC6=O)C7=O)CC5)C4)c3)ncc2F)ccc1CNC(=O)c1cn(C(C)(C)C)nn1` (stereo not given), for which the T1/2 in data set [3] amounted to 0.71 h. For the same compound, in data set [4], the half-maximal degradation concentration (DC50) came to 2.49 nM. Further, the outcome in data set [7] was Active. Besides, the figures for the Activity entry in data set [6], in data set [1] and in data set [2] were “Tde”, 99% and 99%, respectively. Moreover, the TIME in [5] was under 0.5 h.

In the case of `C=CC(=O)Nc1cccc(Nc2nc(Nc3ccc(N4CCN(C5CN(c6ccc7c(c6)C(=O)N(C6CCC(=O)NC6=O)C7=O)C5)CC4)cc3)ncc2F)c1` (stereo not given), the Activity in data set [1] is under 10%. For `O=C1CCC(N2C(=O)c3ccc(N4CCC(N5CCN(c6ccc(Nc7ncc(F)c(N8CCC(CO)CC8)n7)cc6)CC5)CC4)cc3C2=O)C(=O)N1` (stereo not given), the Activity in data set [1] was under 10%. On to `Cc1cc(-c2nc(Nc3cnn(C4CN(CC5CCN(c6ccc7c(c6)C(=O)N(C6CCC(=O)NC6=O)C7=O)CC5)C4)c3)ncc2F)ccc1CNC(=O)c1ccc(C(C)(C)C)cc1` (stereo not given), for which the Activity in data set [1] turned out to be 29%; in [2], 0%. For `Cc1cc(-c2nc(Nc3ccn(C4CN(CC5CCN(c6ccc7c(c6)C(=O)N(C6CCC(=O)NC6=O)C7=O)CC5)C4)n3)ncc2F)ccc1CNC(=O)c1cnc(C(C)(C)C)s1` (stereo not given) the same measures were 95% and 75%. As for `CC#CC(=O)Nc1cccc(Nc2nc(Nc3ccc(N4CCN(C5CN(c6ccc7c(c6)C(=O)N(C6CCC(=O)NC6=O)C7=O)C5)CC4)cc3)ncc2F)c1` (stereo not given), the Activity in [1] came out at 70%. Same read-out and setting: to `O=C1CCC(N2C(=O)c3ccc(N4CC(CN5CCN(c6ccc(Nc7ncc(F)c(N8CCC[C@@H](N9CCOC9=O)C8)n7)cc6)CC5)C4)cc3C2=O)C(=O)N1` (stereo not given in full) belongs under 10%; to `C#CC(=O)Nc1cccc(Nc2nc(Nc3ccc(N4CCN(C5CN(c6ccc7c(c6)C(=O)N(C6CCC(=O)NC6=O)C7=O)C5)CC4)cc3)ncc2F)c1` (stereo not given), 54%.
